A word on the pKd: it is the Kd on a negative log10 scale, so that one unit is a factor of ten.

pKd: −log10 of the molar value. Entries after “also recorded” stand apart in the source; their conditions may differ. {C6-FAM} = fluorescein label attached via 5'-amine; [invdT] = inverted (3'-3') thymidine; m = 2'-O-methyl; r = 2'-OH (RNA); f = 2'-fluoro

One data set has as its system LNCaP cells. The experiment in a line: Cell proliferation assay (BrdU ELISA), targeted killing. The following applies: for effect on LNCaP cell viability: entire concentration range. The class given is cell-based. Background: Dividing cells build labelled thymidine or BrdU into new DNA.
A further data set deals with LNCaP cells (PSMA+). The data set is described as follows: LNCaP FACS binding assay with fluorescein-labeled aptamers. In kind it is cell-based. The following applies: FACS analysis; scrambled A9 negative control. How it is done:
To prepare aptamers for the FACS assay, PSMA aptamers were serially diluted (0-1 uM) in FACS buffer (1×DPBS w/Ca^++/Mg^++ (Gibco, Carlsbad, Calif.) supplemented with 10 mg/mL salmon sperm DNA & 0.2% Na Azide), in a V-bottom 96 well plate, at the concentrations to be tested. LNCaP and PC-3 cells (ATCC, Manassas, Va.) were harvested with trypsin, and 200,000 cells/well were counted, washed once with 1×DPBS (with Ca^++ and Mg^+) and resuspended in 200 μl of FACS Buffer. The 200 μl of cells in FACS buffer were added to individual wells of a new 96 well plate, pelleted by centrifugation (1300 rpm for 5 minutes), and resuspended in 100 μl of the appropriate concentration of diluted aptamer. FACS buffer, a-PSMA antibody (3C6) (Northwest Biotherapeutics, Bothell, Wash., Cat #: 60-5002) and an irrelevant fluorescein isothiocyanate (“FITC”) mouse IgG1 isotype control antibody (BD Pharmingen, San Diego, Calif., Cat#: 554679) were used as controls. The wells of aptamer/cell mixture were incubated at room temperature for 20-30 minutes.
After incubation, 180 μl of FACS buffer (plus 10 mg/mL ssDNA, and 0.2% Na Azide) was added to each well to quench the reaction and cells were pelleted by centrifugation.
Anti-fluorescein/Oregon Green®, rabbit IgG fraction, Alexa Fluor® 488 conjugate (Molecular Probes, Eugene, Oreg., Cat#: A11090) was diluted 1:100 in FACS buffer (100 μl/well) as the secondary antibody for the aptamer-FITC conjugates and FITC-mouse IgG isotype control. FITC Rat anti-mouse IgG1 (A85-1) (BD Pharmingen, San Diego, Calif., Cat#: 553443) was diluted in 1:100 in FACS Buffer as the secondary for the α-PSMA antibody. After centrifugation, the cell pellets were resuspended in 100 μl of the appropriate diluted secondary antibody, and incubated 10 minutes at room temperature. After incubation, 180 μl of FACS buffer was added to each well to quench the reaction, and cells were pelleted by centrifugation.
A tertiary antibody which recognizes the Alexa Fluor® 488 goat anti-rabbit IgG was prepared to further amplify the Alexa Fluor signal. Alexa Fluor® 488 goat anti-rabbit IgG (H+ L) (Molecular Probes, Eugene, Oreg., Cat#: A11034) was diluted 1:100 in FACS buffer, and the pelleted cells were resupsended in 100 μl of the tertiary antibody and incubated for 10 minutes at room temperature. […]
Cell samples were analyzed on a FACS Scan machine (Becton Dickinson, San Jose, Calif.) under the following parameters: FSC/SSC, FL-1/FSC, FL-3/FSC. The unstained and/or isotype controls were used to establish gating parameters, and the data was analyzed using Cell Quest Pro software version 5.1.1 (Becton Dickinson Immunocytometry Systems, San Jose, Calif.).
In general terms: In flow cytometry, cells or beads pass a laser one at a time.

The target of the next data set is T1, ECD PSMA (Homo sapiens, UniProt Q04609).
T1 construct: vector-derived N-terminal linker […]; made in house; host or cells: 293 Freestyle cells, pSecTag2B vector
The experiment in a line: Dot blot binding assay (nitrocellulose filter) with purified ECD PSMA. The following applies: for Max % bound (highest % of minimer bound to target protein): dot blot. From the text: Protein Purification of ECD of PSMA: An I.M.A.G.E. clone (5202715) encoding full length recombinant human PSMA was purchased from Open Biosystems (Clone EHS1001-18533, Huntsville, Ala.). PCR was used to amplify the extracellular portion of the full length clone. An oligo with an N-terminal histidine tag was designed to engineer a construct which lacks the transmembrane domain residues 1-44. The his-tagged extracellular domain (ECD) was subcloned into the pSecTag2B expression vector (Invitrogen, Carlsbad, Calif.). The ECD of PSMA was purified in house from transfected 293 Freestyle cells (ATCC, Manassas, Va.). The amino acid sequence of the expressed protein comprising an N-terminal linker sequence of […] followed by eight Histidines is listed below: […] VSDr[…]a[…]r[…]rYV […] (SEQ ID NO 5)
Dot Blot Binding Analysis. Dot blot binding assays were performed throughout the selections to monitor the protein binding affinity of the pools. For initial pool screening, trace ^32P-labeled pool RNA was combined with PSMA and incubated at room temperature for 30 min in 1×SHMCK buffer pH 7.4 (20 mM Hepes pH 7.4, 120 mM NaCl, 5 mM KCl, 1 mM MgCl2, 1 mM CaCl2) plus 0.1 mg/mL tRNA in a final volume of 30 μl. The mixture was applied to a dot blot apparatus (Schleicher and Schuell Minifold-1 Dot Blot, Acrylic, Keene, N.H.), assembled (from top to bottom) with nitrocellulose, nylon, and gel blot membranes. RNA that is bound to protein is captured on the nitrocellulose filter; whereas the non-protein bound RNA is captured on the nylon filter. […] The Round 9 pool was cloned and screened in a single point dot blot assay using 100 nM PSMA (0 nM PSMA was used as a negative control). Clone transcripts were 5′ end labeled with ^32-P ATP. Likely binders were than assayed for KD determination by the blot assay conditions described directly above, but without tRNA, using an 8 point PSMA titration with a constant RNA concentration. […] Both of the clones screened were unique sequences in the Round 9 selection pool.
In order to identify the core structural elements required for ARC955 binding to PSMA, the 3′-boundaries of the clone was determined through alkaline hydrolysis. The parent RNA transcript was labeled at the 5′-end with γ-^32P ATP and T4 polynucleotide kinase. Radiolabeled ligands were subjected to partial alkaline hydrolysis and then selectively bound in solution to ECD PSMA (purified in house) at 100 nM before being passed through nitrocellulose filters (Centrex MF 1.5 mL, 0.45 μm, Schleicher & Schuell, Keene N.H.). Retained oligonucleotides were resolved on 8% denaturing polyacrylamide gels. The smallest oligonucleotide bound to PSMA defined the 3′-boundary. On the basis of the boundary experiments as well as visual inspection of predicted folds, truncated constructs were synthesized. Clones were then assayed by dot blot as previously described to determine their KD. […] The binding curve for ARC1091 in the dot blot assay is depicted in FIG. 5A, and the predicted secondary structure of ARC1091 is depicted in FIG. 5B. The KD and maximum % bound for the 3 minimized constructs with the overall highest PSMA affinity, as determined by a dot blot binding assay, are listed in Table 4. For the minimized rGmH aptamers described in Table 5 below, the guanosine triphosphates are 2′-OH and the adenosines triphosphates, cytidine triphosphates and uridine triphosphates are 2′-OMe. Unless noted otherwise, the individual sequences are represented in the 5′ to 3′ orientation. In some embodiments, the invention comprises aptamers with a nucleic acid sequence as described in Table 4 below. In some embodiments, the nucleic acid sequence of an aptamer described in Table 4 below additionally comprises a 3′ cap (e.g., an inverted dT cap), and/or 5′ amine (NH2) modification to facilitate chemical coupling, and/or conjugation to a high molecular weight, non-immunogenic compound (e.g., PEG). […]

Setting [1] is: Round 9 PSMA rGmH clones, 8 point PSMA titration, without tRNA.

T1 sequence (Q04609 with tags, fused parts or gaps): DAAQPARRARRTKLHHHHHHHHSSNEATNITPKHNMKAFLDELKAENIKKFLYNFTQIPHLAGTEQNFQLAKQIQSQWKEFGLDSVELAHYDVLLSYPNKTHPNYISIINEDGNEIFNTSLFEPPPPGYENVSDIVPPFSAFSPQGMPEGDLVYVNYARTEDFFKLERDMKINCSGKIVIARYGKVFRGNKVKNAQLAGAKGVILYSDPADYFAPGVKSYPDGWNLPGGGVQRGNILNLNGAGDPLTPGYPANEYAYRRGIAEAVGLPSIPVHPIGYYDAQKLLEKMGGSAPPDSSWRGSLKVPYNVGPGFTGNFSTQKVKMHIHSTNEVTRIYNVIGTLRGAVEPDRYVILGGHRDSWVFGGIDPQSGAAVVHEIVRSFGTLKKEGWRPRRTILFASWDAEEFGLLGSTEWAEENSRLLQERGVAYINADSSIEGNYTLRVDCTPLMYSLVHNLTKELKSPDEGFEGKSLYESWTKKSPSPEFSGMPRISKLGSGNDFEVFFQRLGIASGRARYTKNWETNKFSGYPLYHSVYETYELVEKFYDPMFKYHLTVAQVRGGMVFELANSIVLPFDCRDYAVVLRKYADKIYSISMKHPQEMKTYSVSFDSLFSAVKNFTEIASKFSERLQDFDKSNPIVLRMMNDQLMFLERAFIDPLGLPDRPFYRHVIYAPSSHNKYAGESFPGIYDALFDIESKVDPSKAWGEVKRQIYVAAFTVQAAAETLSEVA

For the compound `O=c1c(-c2ccc(O)cc2)coc2cc(O)cc(O)c12` [Genistein, reference compound], the “effect in cytotoxicity assays at 25 μM” value in the data set with LNCaP cells (positive control, 25 μM) is on record as “partial inhibition”. Further, the “effect in cytotoxicity assays at 150 μM” value in the data set on LNCaP cells (positive control, 150 μM) is “complete cell killing”. In the case of “C6 FAM-GGAGGACCGAAAAAGACCUGACUUCUAUACUAAGUCUACGUUCCUCC-3T (2'-fluoro at CU, RNA at AG, [invdT] at 3' end, 5' {C6-FAM}, backbone not given here) [ARC710, fluorescently labeled A9 minimer]”, the “competition with fluorescently labeled anti-PSMA antibody for binding to the surface of LNCaP cells” value in the data set on LNCaP cells (PSMA+) is on record as “effectively competes”.

Regarding “CUACUACACAUGGGUCGGGUGAGUGGCAAAGGAAUAGUAG (2'-O-methyl at ACU, RNA at G, backbone not given here) [ARC725, non-functional rGmH minimer, irrelevant control]”, in the data set with ECD PSMA, the “PSMA binding” value was “no intrinsic PSMA binding; also recorded: not to exhibit PSMA binding”. In the data set with ECD PSMA (rGmH minimers), the “KD (nM)” value was “no binding” and the “Max % bound (highest % of minimer bound to target protein)” value (“Max % bound” for short) is recorded as “no binding”.

As for “CUACUGGGUGGCUGGGAGGGGAAGAGGGAGUAG (2'-O-methyl at ACU, RNA at G, backbone not given here) [ARC1089, rGmH minimer]”, in the data set with ECD PSMA (rGmH minimers), the pKd was 8.03 and the “Max % bound” value was found to be 22%. On to “GGGUGGCUGGGAGGGGAAGAGGG (2'-O-methyl at ACU, RNA at G, backbone not given here) [ARC1088, rGmH minimer]”, for which, in the data set with ECD PSMA (rGmH minimers), the pKd was 8.68 and the “Max % bound” value stood at 33%. At ECD PSMA (setting [1]), “UAAUACGACUCACUAUAGGGAGAGGAGAGAACGUUCUACUAUGGGUGGCUGGGAGGGGAAGAGGGAGUAGGUCGAUCGAUCGAUCAUCGAUG [ARC955]” had a negative-log Kd (pKd) of 8.05. For the same compound, in the data set with LNCaP cells, the “effect on LNCaP cell viability” value was “no intrinsic effect on cell viability”. With “UAAUACGACUCACUAUAGGGGAGAGGAGAGAACGUUCUACACAUGGGUCGGGUGAGUGGCAAAGGAAUAGGUCGAUCGAUCGAUCAUCGAUG [ARC956]”, the pKd at ECD PSMA (setting [1]) was 7.80. With “c6 fam-mCmGmGmAfCfCmGAAAAmAmGmAmCfCfUGAfCfUfUfCfUAfUAfCfUAAmGmUmCmUAfCmGfUmUmCmCmG-3T (CGGACCGAAAAAGACCUGACUUCUAUACUAAGUCUACGUUCCG; sugars from the 5' end mmmmffmrrrrmmmmffrrfffffrfrffrrmmmmrfmfmmmm, [invdT] at 3' end, 5' {C6-FAM}, backbone not given here) [ARC711, fluorescently labeled A9 minimer]”, the “competition with fluorescently labeled anti-PSMA antibody for binding to the surface of LNCaP cells” value in the data set on LNCaP cells (PSMA+) is “effectively competes”. “mAGmAGGmAGmAGmAmAmCGmUmUmCmUmAmCmUmAmUGGGmUGGmCmUGGGmAGGGG (AGAGGAGAGAACGUUCUACUAUGGGUGGCUGGGAGGGG; 2'-O-methyl at ACU, RNA at G, backbone not given here) [ARC1091, minimized ARC955 (G2) aptamer]”: in the data set with ECD PSMA, the “PSMA binding” value is on record as “maintains the full binding capacity”. Further, in the data set with ECD PSMA (rGmH minimers), the negative-log Kd (pKd) was 8.51 and the “Max % bound” value turned out to be 52%. Consider “mCmGmGmAfCfCmGAAAAmAmGmAmCfCfUGAfCfUfUfCfUAfUAfCfUAAmGmUmCmUAfCmGfUmUmCmCmG-3T (CGGACCGAAAAAGACCUGACUUCUAUACUAAGUCUACGUUCCG; sugars from the 5' end mmmmffmrrrrmmmmffrrfffffrfrffrrmmmmrfmfmmmm, [invdT] at 3' end, backbone not given here) [ARC942, minimized A9 aptamer]”, for which the “effect on LNCaP cell viability” value with LNCaP cells is recorded as “no intrinsic effect on cell viability”.

The values are drawn from patent publication US20090105172A1, “Stabilized Aptamers to PSMA and Their Use as Prostate Cancer Therapeutics” (priority 2005, published 2009).
